Data as given in patent US20100168054A1, “Functionalized Beta 1,6 Glucosamine Disaccharides and Process for Their Preparation” (OM PHARMA, priority 2006, published 2010).
Where two headings read alike, the source gives them in different places. Blank lines part the entries; values can stand above or below the compound they belong to.

Experiments:
rat mast cells = test: Histamine secretion (compound 48/80-stimulated); assay type: cell-based; settings: compound 48/80 0.1 μg/ml, 2 min, 37° C.
Source text: Using an in vitro rat model of mast cell degranulation (proposed by the CRO CEREP, catalog number 2006: 771-c), we aimed to investigate whether the synthetic molecules OM-174-DP (compound 1b) OM-174-MP-PD (19), OM-174-MP-EP (33), OM-174-MP-CM (35c) and OM-174-MP-PR (17) would inhibit histamine secretion by compound 48/80-stimulated mastocytes. The protocol used is briefly summarized below:
The results are expressed as a percent of control specific activity ((measured specific activity/control specific activity)×100) obtained in the presence of the test compounds. The IC50 values (concentration causing a half-maximal inhibition of control specific activity) were determined by non-linear regression analysis of the inhibition curves generated with mean replicate values using Hill equation curve fitting (Y=D+[(A−D)/(1+(C/C50)nH)], where Y=specific activity, D=minimum specific activity, A=maximum specific activity, C=compound concentration, C50=IC50, and nH=slope factor). This analysis was performed using a software developed at Cerep (Hill software) and validated by comparison with data generated by the commercial software SigmaPlot® 4.0 for Windows® (© 1997 by SPSS Inc.).
In each experiment, the reference compound was tested concurrently with the test compounds in order to assess the assay suitability. It was tested at several concentrations (for IC50 value determination), and the data were compared with historical values determined at CEREP. The assay was rendered valid if the suitability criteria were met, in accordance with the corresponding Standard Operating Procedure.

[1] = test system: human peripheral blood mononuclear cells (PBMC); test: IL-6 secretion by human PBMC (ELISA); assay type: cell-based; settings: for IL6: 24 h
Description: (§1) Peripheral blood from healthy donors (Centre de transfusion, Hôpital Universitaire, Geneva) was centrifuged to get the buffy coat. The buffy coat was mixed with Hanks' balanced saline solution (HBSS, Sigma, Buchs, Switzerland), layered over Ficoll Paque Plus (Amersham Pharmacia) to 1.077 g/mL and centrifuged (2800 rpm, 20° C., 25 min). Cells harvested from the interphase were washed twice in HBSS at 800 rpm for 15 min at room temperature and the pelleted cells were resuspended in HBSS. The cell counts were performed using a Neubauer cell. All cell cultures were performed in RPMI-1640 medium supplemented with penicillin (100 U/mL), streptomycin (100 μg/mL), L-glutamine (2 mmol/L) and 10% fetal calf serum (FCS), all obtained from Sigma. For in vitro stimulation, the cells were cultured at a concentration of 1×10^6 viable cells/well.
(§2) PBMC were incubated at 37° C. and under 5% CO2 atmosphere with the controls (see below) and with the products of the invention at 1, 5, and 20 μg/mL for IL-6, and at 0.2, 2, and 20 μg/mL for TNF-α secretion. Medium: RPMI alone.
(§3) The surpernatants of the cultures were harvested after 24 h and the concentration of IL-6 and TNF-α were measured by an enzyme-linked immunosorbent assay (ELISA) (Human IL-6 and TNF-α ELISA Set, BD OptEIA, San Diego, USA), according to the manufacturer instructions. The detection limits were 10 and 8 pg/mL respectively.
PBMC are incubated at 37° C. and under 5% CO2 atmosphere with the products of the invention.
The supernatants of the cultures are harvested after 24 h and the concentration of IL-6 was measured by an enzyme-linked immunosorbent assay (ELISA) (Human IL-6 ELISA Set, BD OptEIA, San Diego, USA), according to the manufacturer instructions. The detection limit was 10 pg/mL.

[2] = test system: human peripheral blood mononuclear cells (PBMC); test: TNF-α secretion by human PBMC (ELISA); assay type: cell-based; settings: for TNF-α: 24 h; for TNF-α induction (in words): 0.2, 2, 20 μg/ml
Description: as §1, §2, §3

TLR2 and CD14 = target: T1, TLR2 and CD14 (Homo sapiens, UniProt O60603); test: HEK-TLR2-CD14 IL-8 secretion; assay type: cell-based; settings: 24 h
T1 construct: expressed in transfected cells; host or cells: HEK (HEK-TLR2-CD14 cell line)
Source text: (§4) The HEK293 cell line was chosen for its null or low basal expression of the TLR genes. These cells enable efficient monitoring of TLR activity using ELISA analysis such as IL-8 titration or reporter-based systems that monitor TLR-induced NF-κB activation. HEK-TLR2 cells (Invivogen, Toulouse, France) are engineered HEK293 cells stably transfected with multiple genes from the TLR2 pathway that include TLR2 and genes participating in the recognition or involved in the signaling cascade. These cells secrete IL-8 after TLR2 stimulation. The experiments were performed according to manufacturers' instructions. Briefly, 2×10^4 cells/well (200 ul RPMI) are incubated at 37° C. during 3 days (5% CO2). The medium is removed, and 90 ul RPMi+5% FCS is added to the wells Then the agonists and controls are added (10 ul/well). The cells return to the incubator for 24 hours. The supernatants are collected and the IL-8 ELISA is performed according to manufacturer's instructions These preliminary results were confirmed in another cell line expressing concomitantly TLR2 and CD14. The procedure used is similar to the one described just above.

[3] = test system: THP1-Blue cells (express naturally both TLR2 and TLR4); test: THP1-Blue NF-κB/AP-1-inducible SEAP reporter; assay type: cell-based, human; settings: 48 h
Description: A first series of experiment was performed on THP-1 cells, which express naturally both TLR2 and TLR4. THP-1 cells are human peripheral blood monocytic cells. Monocytes play a key role in innate immunity and express most TLRs at various levels. As for the primary cells, THP-1 cells activate NF-κB and other transcription factors in response to TLR ligands
To facilitate analysis of TLR response in monocytes, InvivoGen (Toulouse, France) provides THP-1 clones stably transfected with an NF-κB-inducible reporter system, called THP1-Blue™. THP-1 Blue cells were stably transfected with a reporter plasmid expressing a secreted embryonic alkaline phosphatase (SEAP) gene under the control of a promoter inducible by several transcription factors such as NF-κB and AP-1. Upon TLR stimulation, THP1-Blue™ cells activate transcription factors and subsequently the secretion of SEAP which is easily detectable when using QUANTI-Blue\u2122a medium that turns purple/blue in the presence of SEAP.
The cells were stimulated with the controls and compounds of the invention according to manufacturer's instructions. Results: Increased OD at 625 Nm after 48 Hours: The results for the controls (negative=LPS K12CD25 ultrapure, a TLR4 agonist; and PAM3CSK4=positive, a TLR2 agonist) are provided in the table below. The results (expressed as OD of arbitrary units) show the mean values (from duplicate measures) of Optical density read at 625 nm, 48 h after stimulation at 37° C. with the controls (up to 1000 ng/ml): […]

TLR2 = target: T2, TLR2 (Homo sapiens, UniProt O60603); test: HEK-TLR2 IL-8 secretion; assay type: cell-based; settings: 24 h
T2 construct: host or cells: HEK293
Source text: as §4, with “instructions” for “instructions These preliminary results were confirmed in another cell line expressing concomitantly TLR2 and CD14. The procedure used is similar to the one described just above.”

TLR4 = target: T3, TLR4 (Homo sapiens, UniProt O00206+Q9Y6Y9); test: HEK-MD2-TLR4-CD14 IL-8 secretion; assay type: cell-based; settings: 24 h
T3 construct: expressed in transfected cells; host or cells: HEK293
Source text: as §4, with “instructions” for “instructions These preliminary results were confirmed in another cell line expressing concomitantly TLR2 and CD14. The procedure used is similar to the one described just above.”
HEK-MD2-TLR4-CD14 are highly sensitive to LPS. They were obtained by stable transfection of HEK293 cells with the TLR4, MD2 and CD14 genes and an NF-κB-inducible reporter system. They secrete IL-8. We used the same experimental procedure as for the other HEK cell lines described above.

T3 sequence (O00206 24-839): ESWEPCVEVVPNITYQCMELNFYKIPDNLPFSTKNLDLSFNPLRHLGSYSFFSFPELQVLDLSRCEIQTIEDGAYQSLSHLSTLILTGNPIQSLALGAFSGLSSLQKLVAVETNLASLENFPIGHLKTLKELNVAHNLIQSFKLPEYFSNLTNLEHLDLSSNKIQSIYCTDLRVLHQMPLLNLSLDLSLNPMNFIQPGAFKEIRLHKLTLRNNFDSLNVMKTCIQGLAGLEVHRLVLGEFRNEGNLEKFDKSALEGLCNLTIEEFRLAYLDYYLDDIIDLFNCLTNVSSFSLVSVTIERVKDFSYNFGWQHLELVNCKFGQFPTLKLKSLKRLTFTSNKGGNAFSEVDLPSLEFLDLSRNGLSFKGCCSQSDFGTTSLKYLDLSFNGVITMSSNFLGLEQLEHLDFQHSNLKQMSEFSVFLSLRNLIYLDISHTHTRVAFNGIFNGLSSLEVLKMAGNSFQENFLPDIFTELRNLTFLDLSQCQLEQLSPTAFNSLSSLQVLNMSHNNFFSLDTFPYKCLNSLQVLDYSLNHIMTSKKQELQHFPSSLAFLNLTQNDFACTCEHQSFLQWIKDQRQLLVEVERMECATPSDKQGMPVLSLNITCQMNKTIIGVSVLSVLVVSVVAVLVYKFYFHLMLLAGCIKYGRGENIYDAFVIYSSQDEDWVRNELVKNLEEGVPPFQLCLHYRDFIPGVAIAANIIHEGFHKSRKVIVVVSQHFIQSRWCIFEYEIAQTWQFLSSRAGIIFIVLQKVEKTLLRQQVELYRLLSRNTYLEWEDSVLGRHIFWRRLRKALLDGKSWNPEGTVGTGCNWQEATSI
T3 sequence (Q9Y6Y9 17-160 limits assumed): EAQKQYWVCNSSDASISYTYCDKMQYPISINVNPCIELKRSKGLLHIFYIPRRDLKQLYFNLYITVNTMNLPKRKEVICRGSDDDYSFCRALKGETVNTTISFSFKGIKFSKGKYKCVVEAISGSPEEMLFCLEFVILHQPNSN
T2 sequence (O60603 21-784): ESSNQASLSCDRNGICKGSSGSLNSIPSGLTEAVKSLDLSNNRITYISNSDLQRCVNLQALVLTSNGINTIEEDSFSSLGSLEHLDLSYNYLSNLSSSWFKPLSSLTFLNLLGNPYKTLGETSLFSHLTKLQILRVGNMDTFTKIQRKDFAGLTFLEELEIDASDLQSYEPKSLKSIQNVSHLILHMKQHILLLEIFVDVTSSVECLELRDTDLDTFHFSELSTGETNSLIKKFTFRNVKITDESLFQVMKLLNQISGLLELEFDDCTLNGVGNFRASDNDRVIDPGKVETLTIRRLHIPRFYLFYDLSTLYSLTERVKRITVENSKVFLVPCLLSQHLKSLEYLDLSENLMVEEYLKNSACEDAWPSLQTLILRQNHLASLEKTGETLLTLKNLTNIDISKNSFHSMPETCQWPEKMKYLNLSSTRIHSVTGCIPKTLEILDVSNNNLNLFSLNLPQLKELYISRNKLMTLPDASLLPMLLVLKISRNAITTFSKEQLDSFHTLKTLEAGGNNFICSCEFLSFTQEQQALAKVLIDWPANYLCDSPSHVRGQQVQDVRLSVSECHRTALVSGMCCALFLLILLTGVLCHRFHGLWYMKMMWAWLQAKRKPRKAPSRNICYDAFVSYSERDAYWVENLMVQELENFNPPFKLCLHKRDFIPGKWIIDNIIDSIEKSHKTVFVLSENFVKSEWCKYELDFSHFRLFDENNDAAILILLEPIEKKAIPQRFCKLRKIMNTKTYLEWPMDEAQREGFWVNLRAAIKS
T1 sequence (O60603 21-784): as above

IC50 (rat mast cells; read-out: IC50, mean of the reference (5 different tests)): 8.6 µM
Compound: O=C(O)c1cc(=O)c2c(OCC(O)COc3cccc4oc(C(=O)O)cc(=O)c34)cccc2o1 [SCG, reference compound]

Compound: CCCCCCCCCCCC(=O)O[C@H](CCCCCCCCCCC)CC(=O)NC1C(OCC2OC(OCCCCCCN)C(NC(=O)C[C@H](O)CCCCCCCCCCC)C(O)C2O)OC(CO)C(OP(=O)(O)O)C1O (stereo partly drawn) [compound 26, 6-Aminohexyl-2-deoxy-6-O-[2-deoxy-4-O-(dihydroxyphosphoryl)-2-[(R)-3-dodecanoyloxytetradecanoylamino]-β-D-glucopyranosyl]-2-[(R)-3-hydroxytetradecanoylamino]-β-D-glucopyranoside]
IL6 ([1]; 1 μg/ml): 269.0 pg/mL
IL6 ([1]; 5 μg/ml): 1923.2 pg/mL
IL6 ([1]; 20 μg/ml): 8349.3 pg/mL
IL-6 secretion (in words) ([1]; 1, 5, 20 μg/ml): able to induce IL-6 secretion
TNF-α ([2]; 0.2 μg/ml): 29.3 pg/mL
TNF-α ([2]; 2 μg/ml): 1264 pg/mL
TNF-α ([2]; 20 μg/ml): 7016 pg/mL
TNF-α induction (in words) [2]: induced high levels of TNF-α

Compound: CCCCCCCCCCCC(=O)O[C@H](CCCCCCCCCCC)CC(=O)NC1C(OCC2OC(OCCO)C(NC(=O)C[C@H](O)CCCCCCCCCCC)C(O)C2O)OC(CO)C(OP(=O)(O)O)C1O (stereo partly drawn) [compound 32, 2-Hydroxyethyl-2-Deoxy-6-O-[2-deoxy-4-O-(dihydroxyphosphoryl)-2-[(R)-3-dodecanoyloxytetradecanoylamino]-β-D-glucopyranosyl]-2-[(R)-3-hydroxytetradecanoylamino]-α-D-glucopyranoside]
TNF-α ([2]; 0.2 μg/ml): 5.5 pg/mL
TNF-α ([2]; 2 μg/ml): 7.8 pg/mL
TNF-α ([2]; 20 μg/ml): 251 pg/mL
TNF-α induction (in words) [2]: induced high levels of TNF-α

IC50 (rat mast cells; read-out: IC50): 0.32 µM
Compound: CCCCCCCCCCCC(=O)O[C@H](CCCCCCCCCCC)CC(=O)N[C@H]1[C@H](OC[C@H]2O[C@H](OCC(=O)O)[C@H](NC(=O)C[C@H](O)CCCCCCCCCCC)[C@@H](O)[C@@H]2O)O[C@H](CO)[C@@H](OP(=O)(O)O)[C@@H]1O [compound 35c, 2-Carboxymethyl-2-Deoxy-6-O-[2-deoxy-4-O-(dihydroxyphosphoryl)-2-[(R)-3-dodecanoyloxytetradecanoylamino]-β-D-glucopyranosyl]-2-[(R)-3-hydroxytetradecanoylamino]-α-D-glucopyranoside]
TNF-α ([2]; 0.2 μg/ml): 48 pg/mL
TNF-α ([2]; 2 μg/ml): 502 pg/mL
TNF-α ([2]; 20 μg/ml): 591 pg/mL

Compound: CCCCCCCCCCCCCCO[C@@H]1O[C@H](CO[C@@H]2O[C@H](CO)[C@@H](OP(=O)(O)O)[C@H](O)[C@H]2NC(=O)C[C@@H](CCCCCCCCCCC)OC(=O)CCCCCCCCCCC)[C@@H](O)[C@H](O)[C@H]1NC(=O)C[C@H](O)CCCCCCCCCCC [compound 41c, Tetradecyl-2-Deoxy-6-O-[2-deoxy-4-O-(dihydroxyphosphoryl)-2-[(R)-3-dodecanoyloxytetradecanoylamino]-β-D-glucopyranosyl]-2-[(R)-3-hydroxytetradecanoylamino]-β-D-glucopyranoside]
TNF-α ([2]; 0.2 μg/ml): 570 pg/mL
TNF-α ([2]; 2 μg/ml): 6036 pg/mL
TNF-α ([2]; 20 μg/ml): 9769 pg/mL
TNF-α induction (in words) [2]: induced high levels of TNF-α

IL-8 secretion, mean (TLR2 and CD14; 1 ng/ml): 1.33 pg/mL
IL-8 secretion, mean (TLR2 and CD14; 4 ng/ml): 2.55 pg/mL
IL-8 secretion, mean (TLR2 and CD14; 12 ng/ml): 6.78 pg/mL
IL-8 secretion, mean (TLR2 and CD14; 37 ng/ml): 15.90 pg/mL
IL-8 secretion, mean (TLR2 and CD14; 111 ng/ml): 22.64 pg/mL
IL-8 secretion, mean (TLR2 and CD14; 333 ng/ml): 33.30 pg/mL
IL-8 secretion, mean (TLR2 and CD14; 1000 ng/ml): 39.04 pg/mL
IL-8 secretion, mean (TLR2; 1 ng/ml): 1.84 pg/mL
IL-8 secretion, mean (TLR2; 4 ng/ml): 3.89 pg/mL
IL-8 secretion, mean (TLR2; 12 ng/ml): 9.12 pg/mL
IL-8 secretion, mean (TLR2; 37 ng/ml): 18.33 pg/mL
IL-8 secretion, mean (TLR2; 111 ng/ml): 23.93 pg/mL
IL-8 secretion, mean (TLR2; 333 ng/ml): 28.24 pg/mL
IL-8 secretion, mean (TLR2; 1000 ng/ml): 32.94 pg/mL
IL-8 secretion, mean (TLR4; 1 ng/ml): 1.75 pg/mL
IL-8 secretion, mean (TLR4; 4 ng/ml): 1.78 pg/mL
IL-8 secretion, mean (TLR4; 12 ng/ml): 1.76 pg/mL
IL-8 secretion, mean (TLR4; 37 ng/ml): 1.72 pg/mL
IL-8 secretion, mean (TLR4; 111 ng/ml): 1.83 pg/mL
IL-8 secretion, mean (TLR4; 333 ng/ml): 1.87 pg/mL
IL-8 secretion, mean (TLR4; 1000 ng/ml): 2.17 pg/mL
Compound: PAM3CSK4 [reference compound]
Optical density read at 625 nm, mean of duplicates ([3]; 1 ng/ml): 0.48 OD
Optical density read at 625 nm, mean of duplicates ([3]; 4 ng/ml): 0.85 OD
Optical density read at 625 nm, mean of duplicates ([3]; 12 ng/ml): 1.11 OD
Optical density read at 625 nm, mean of duplicates ([3]; 37 ng/ml): 1.22 OD
Optical density read at 625 nm, mean of duplicates ([3]; 111 ng/ml): 1.30 OD
Optical density read at 625 nm, mean of duplicates ([3]; 333 ng/ml): 1.38 OD
Optical density read at 625 nm, mean of duplicates ([3]; 1000 ng/ml): 1.35 OD
